# According to patent publication US20130023504A1, “Modulation of Prostaglandin/Cyclooxygenase Metabolic Pathways” (HUNTER-FLEMING LIMITED, priority 2006, published 2013):
# Marks after values point to notes of the source that are not given here.
# Tests used:
# Format in all cases: cell-based
# human PBMC = test: PG levels (PGE2, PGD2, 15d-PGJ2) in culture medium of human PBMC cultured with and without TNF-α, EIA (Example 3); conditions: without TNF-α
# Protocol: (§1) Whole blood was collected from donors in EDTA-supplemented pouches at the Etablissement Français du Sang (Brest, France). The PBMC were isolated then from whole blood under sterile conditions within 36 hours after collection. Gradient density centrifugation was carried out on Ficoll (Eurobio). After washing in RPMI 1640 medium (Eurobio), cells were suspended in RPMI 1640 medium supplemented with 10% heat-inactivated fetal calf serum (Eurobio), 2 mM glutamine (D. Dutscher), 100 U of penicillin/ml (D. Dutscher), and 100 μg of streptomycin/ml (D. Dutscher). Monocytes were selected by plastic adherence for 1 h and approximately 10^7 cells were plated in 6-well tissue culture plates (3 mL medium per well). All incubations were performed in a humidified incubator at 37° C. and 5% CO2. Cells were recovered and dispersed in 2 ml fresh incubation medium supplemented with either 7β-hydroxyEPIA, 7β-hydroxy-DHEA, or 7α-hydroxy-DHEA (in 20 μL ethanol) in the presence or absence of 0.01 μg/mL TNF-α (Sigma-Aldrich). Control incubations contained 20 μl ethanol but no steroid. Supernatants were collected after 4 h and 24 hours incubations for measurement of their PG contents and cells were used for subsequent RNA isolation. A single step extraction method using the Trizol Reagent (Invitrogen, Cergy-Pontoise, France) provided total RNA.
# Commercially available EIA kits were used for the determination of PGE2 levels (Oxford Biomedical Research, UK) and 15d-PGJ2 levels (Assay designs, Euromedex, France) in culture media. Measurement of PGD2 levels was obtained using the prostaglandin D2-MOX EIA kit (Cayman Chemical, Euromedex). In this case, and prior to assay, the fresh samples were immediately treated with the MOX-HCl reagent, which converted PGD2 into PGD2-MOX, thus preventing any further chemical degradation.
# (§2) All assays were carried out in triplicate and results were plotted as mean±S.E.M. One-way analysis of variance was performed followed by Duncan's multiple range tests in order to compare the differences between groups. Differences were considered statistically significant when p<0.05.
# m-PGES1 mRNA = m-PGES1 mRNA in human PBMC with and without TNF-α, quantitative RT-PCR; conditions: without TNF-α
# Protocol: as §1
# (§3) cDNAs were synthesized from TURBO DNase I—treated RNA (Ambion, Huntingdon, UK) using the Superscript first strand synthesis system kit (Invitrogen). RT-PCR amplification mixtures (50 μL) contained 2.5× RealMaster Mix/20×SYBR solution (11.25 μL) (Eppendorf, Le Pecq, France) and 200 nM forward and reverse primers. Reactions were run on a RealPlex ep gradient S mastercycler (Eppendorf). The cycling conditions were 10 minutes at 95° C. and 45 cycles at 95° C., 55° C. and 68° C. for 15 seconds, 30 seconds and 30 seconds, respectively. Each assay included a standard curve of four serial dilution points of control cDNA. The HPRT1 housekeeping gene was used for quantification. All oligonucleotide primers (Table 2) were synthesized by Genecust/Distribio (Evry, France). The specificity of the amplified product was monitored by examining the melting curve of the product and confirmed by analysis on agarose gel electrophoresis.
# as §2
# COX-2 mRNA = COX-2 mRNA in human PBMC with and without TNF-α, quantitative RT-PCR; conditions: without TNF-α
# Protocol: as §1, §3, §2
# [1] = test system: rat spinal cord motor neurones; test: Neurite growth of spinal cord motor neurones in primary culture (anti β-Tubulin, In Cell Analyzer)
# Protocol: Rat spinal motor neurones were prepared according to the method described by Martinou et al., 1992 (Martinou J C, Martinou I, Kato AC Cholinergic differentiation factor (CDF/LIF) promotes survival of isolated rat embryonic motoneurons in vitro. Neuron. 1992 April; 8(4):737-44). Briefly, pregnant female Wistar rats of 15 days gestation, were killed by cervical dislocation and the foetuses were removed from the uterus. Their spinal cords were removed and placed in ice-cold medium of Leibovitz (L15, Invitrogen, 11415-049) containing 1% of bovine serum albuminutes (BSA fatty acid free, Eurobio, Les Ulis, France, GXXBSA01-65). Meninges were carefully removed.
# The spinal motor neurones were dissociated by trypsinisation for 20 minutes at 37° C. (trypsin EDTA 10× Invitrogen 15400054) diluted in PBS without calcium and magnesium (Invitrogen 2007-03). The reaction was stopped by the addition of Dulbecco Modified Eagle's Media (DMEM, Invitrogen 21969-035) containing DNase I grade II (0.1 mg/ml Roche diagnostic 104159) and 10% foetal calf serum (FCS, Invitrogen 10270098). The suspension was then mechanically dissociated by 3 passages through a 10 ml pipette. Cells were then centrifuged at 580 g for 10 minutes at room temperature. The pellet of dissociated cells was re-suspended in L15 medium and the resulting suspension was enriched in motor neurones by centrifugation at 180×g for 10 minutes at room temperature on a layer of BSA solution (3.5%) in L15 medium. The supernatant was discarded and the pellet was re-suspended in L15 medium supplemented with DNase I (1%). Then the suspension was layered over a cushion of Optiprep (d: 1.06 g/ml; Abcys, Paris, France; 1030061) and centrifuged at 335×g for 15 minutes at room temperature. The upper phase, containing the purified motor neurones, was collected, re-suspended with L15 medium and centrifuged at 800×g for 10 minutes at room temperature. The cell pellet was finally resuspended in a defined culture medium consisting of neurobasal medium supplemented with 2% B27, 2 mM L-Glutamine and Penicillin 50 Ul/ml-Streptomycin 50 μg/ml. Viable cells were counted in a Neubauer cytometer using the trypan blue exclusion test (Sigma T8154) then plated at 30 000 cells/well in 96 well-plates (pre-coated with poly-1-lysine; Nunclon, Invitrogen P5899) and cultured at 37° C. in a humidified air (95%) CO2 (5%) atmosphere.
# The culture medium was changed into a defined culture medium after a 12 hours incubation period following the conditions described below:
# BDNF 50 ng/ml and 10 ng/ml (in 0.1% DMSO)
# After 6 hours, 12 hours and 24 hours of incubation with, cells were fixed for 5 minutes in an ethanol/acetic acid solution (95%/5%) at −20° C. and rinsed 3 times in PBS.
# Motor neurones and sensory neurones were labelled by monoclonal anti β-Tubulin antibody (Sigma T8660) diluted at 1:400 in incubation solution (PBS with 5% of FCS and 0.1% of saponin, Sigma S-7900). This antibody specifically labels neurone cell bodies and neurites.
# After 2 hours of incubation, the cells were washed in PBS and incubated with Alexa Fluor 488 goat anti mouse IgG (Molecular Probes A11001) diluted at 1:300 in incubation solution to reveal the 8-Tubulin III antibodies.
# Analysis of the total length of neurones labelled with anti β-Tubulin antibodies (neurones) were carried out using In Cell Analyzer 1000 3.2.Workstation software.
# The results were expressed in percentage compared to the vehicle. Comparison of groups was carried out using the unpaired T test.
molecule,measurement,setting,value
CC12CCC3C(C1CCC2=O)[C@@H](O)C=C1C[C@@H](O)CCC13C (stereo partly drawn) [7β-hydroxy-DHEA],15d-PGJ2,"human PBMC; 1 nM, 4 h",0.45 ± 0.016 ng/mL
same,PGD2,"human PBMC; 1 nM, 4 h",0.18 ± 0.002 ng/mL
same,PGE2,"human PBMC; 1 nM, 4 h",0.22 ± 0.003 ng/mL
same,15d-PGJ2,"human PBMC; 1 nM, 24 h",0.66 ± 0.013^a ng/mL
same,PGD2,"human PBMC; 1 nM, 24 h",0.21 ± 0.009^a ng/mL
same,PGE2,"human PBMC; 1 nM, 24 h",0.22 ± 0.003 ng/mL
same,15d-PGJ2,"human PBMC; 10 nM, 4 h",0.40 ± 0.014 ng/mL
same,PGD2,"human PBMC; 10 nM, 4 h",0.14 ± 0.001 ng/mL
same,PGE2,"human PBMC; 10 nM, 4 h",0.22 ± 0.013 ng/mL
same,15d-PGJ2,"human PBMC; 10 nM, 24 h",0.62 ± 0.008^a ng/mL
same,PGD2,"human PBMC; 10 nM, 24 h",0.24 ± 0.001^a ng/mL
same,PGE2,"human PBMC; 10 nM, 24 h",0.24 ± 0.002 ng/mL
same,15d-PGJ2,"human PBMC; 100 nM, 4 h",0.42 ± 0.030 ng/mL
same,PGD2,"human PBMC; 100 nM, 4 h",0.19 ± 0.008 ng/mL
same,PGE2,"human PBMC; 100 nM, 4 h",0.22 ± 0.002 ng/mL
same,15d-PGJ2,"human PBMC; 100 nM, 24 h",0.56 ± 0.020^a ng/mL
same,PGD2,"human PBMC; 100 nM, 24 h",0.34 ± 0.025^a ng/mL
same,PGE2,"human PBMC; 100 nM, 24 h",0.24 ± 0.004 ng/mL
same,"mPGES1 (mRNA), mRNA production relative to controls","m-PGES1 mRNA; 1 nM, 4 h",0.43 ± 0.057^b
same,"mPGES1 (mRNA), mRNA production relative to controls","m-PGES1 mRNA; 1 nM, 24 h",1.94 ± 0.422^a
same,"mPGES1 (mRNA), mRNA production relative to controls","m-PGES1 mRNA; 10 nM, 4 h",0.67 ± 0.071^b
same,"mPGES1 (mRNA), mRNA production relative to controls","m-PGES1 mRNA; 10 nM, 24 h",1.64 ± 0.338^a
same,"mPGES1 (mRNA), mRNA production relative to controls","m-PGES1 mRNA; 100 nM, 4 h",0.82 ± 0.085^b
same,"mPGES1 (mRNA), mRNA production relative to controls","m-PGES1 mRNA; 100 nM, 24 h",1.64 ± 0.322^a
same,"COX-2 (mRNA), mRNA production relative to controls","COX-2 mRNA; 1 nM, 4 h",1.20 ± 0.179
same,"COX-2 (mRNA), mRNA production relative to controls","COX-2 mRNA; 1 nM, 24 h",1.76 ± 0.672
same,"COX-2 (mRNA), mRNA production relative to controls","COX-2 mRNA; 10 nM, 4 h",1.33 ± 0.039
same,"COX-2 (mRNA), mRNA production relative to controls","COX-2 mRNA; 10 nM, 24 h",1.54 ± 0.630
same,"COX-2 (mRNA), mRNA production relative to controls","COX-2 mRNA; 100 nM, 4 h",5.09 ± 1.166^a
same,"COX-2 (mRNA), mRNA production relative to controls","COX-2 mRNA; 100 nM, 24 h",2.78 ± 0.580^a
"BDNF: Brain derived nerve growth factor, a specific growth factor for motor neurones; reference compound (protein, UniProt P23560 19-247, looked up) Neurotrophic factor BDNF …: APMKEANIRGQGGLAYPGVRTHGTLESVNGPKAGSRGLTSLADTFEHVIEELLDEDQKVRPNEENNKDADLYTSRVMLSSQVPLEPPLLFLLEEYKNYLDAANMSMRVRRHSDPARRGELSVCDSISEWVTAADKKTAVDMSGGTVTVLEKVPVSKGQLKQYFYETKCNPMGYTKEGCRGIDKRHWNSQCRTTQSYVRALTMDSKKRIGWRFIRIDTSCVCTLTIKRGR","Neurites length per field, % Vehicle","[1]; 10 ng/ml, 6 hours",193%
same,"Neurites length per field, Mean","[1]; 10 ng/ml, 6 hours",489.5 μm
same,"Neurites length per field, % Vehicle","[1]; 10 ng/ml, 12 hours",173%
same,"Neurites length per field, Mean","[1]; 10 ng/ml, 12 hours",731.3 μm
same,"Neurites length per field, % Vehicle","[1]; 10 ng/ml, 24 hours",170%
same,"Neurites length per field, Mean","[1]; 10 ng/ml, 24 hours",366.1 μm
same,"Neurites length per field, % Vehicle","[1]; 50 ng/ml, 6 hours",180%
same,"Neurites length per field, Mean","[1]; 50 ng/ml, 6 hours",457.2 μm
same,"Neurites length per field, % Vehicle","[1]; 50 ng/ml, 12 hours",152%
same,"Neurites length per field, Mean","[1]; 50 ng/ml, 12 hours",643.7 μm
same,"Neurites length per field, Mean","[1]; 50 ng/ml, 24 hours",293.6 μm
